The record followed here is patent US12083141B2, “Treatment of hyperglycemia with solute carrier family 39 member 5 (SLC39A5) inhibitors” (Regeneron Pharmaceuticals, Inc., priority 2019, dated 2024).

Structures are written as SMILES.

Data set [1] has as its system tyrosine phosphatase. The data set is described as follows: Dependence of tyrosine phosphatase activity on zinc concentration. Type of data set: biochemical. The following applies: increased concentrations of zinc.
In data set [2] the test system is serine/threonine phosphatase. Briefly: Dependence of serine/threonine phosphatase activity on zinc concentration. The format is biochemical. The following applies: increased concentrations of zinc.
The subject of data set [3] is human primary hepatocytes. The data set is described as follows: Zinc activation of LKB1/AMPK and AKT signaling in primary hepatocytes. The format is cell-based. The following applies: acute, dose dependent. As to the method:
Liver protein was extracted using RIPA buffer (Cell signaling technology, Cat #9806) with Halt Protease & Phosphatase Inhibitor Cocktail (ThermoFisher Scientific, Cat #78440). Five microgram protein of each sample were separated in NuPAGE 4-12% Bis-Tris protein gel (Invitrogen, Cat #WG1403BOX), and transferred to nitrocellulose membrane using Trans-Blot® Turbo™ Transfer System (BioRad). Blotting was performed using the following Cell Signaling Technology antibodies: Phospho-AMPKα (Thr172) (Cell signaling technology, Cat #2535), AMPKα (Cell signaling technology, Cat #5831), β-Actin (Sigma, Cat #5441), Phospho-AKT (Ser473) (Cell signaling technology, Cat #4060), AKT (Cell signaling technology, Cat #9272), Phospho-LKB1 (Ser428) (Cell signaling technology, Cat #3482), LKB1 (Cell signaling technology, Cat #3050), rabbit IgG conjugated to horseradish peroxidase (HRP) (Cell signaling technology, Cat #7074) and mouse IgG conjugated to HRP (Cell signaling technology, Cat #7076). Blots were developed using SuperSignal West Femto Substrate (ThermoFisher Scientific, Cat #34095). Signals were captured using ImageQuant LAS4000 (GE Healthcare).

In data set [4] the test system is tyrosine phosphatase. Briefly: Ex vivo tyrosine phosphatase activity in SLC39A5 loss-of-function mice, diet zinc supplementation. The following applies: high fat diets supplemented with different zinc concentrations, ex vivo assay.
The subject of another data set is mice fed high fat diet. The data set is described as follows: Zinc supplementation of high fat diet in mice (DIO). The format is in vivo. The settings on record: for hepatic zinc levels: zinc-supplemented diet. The procedure: Four groups of 6-week old male mice (16 per group) were fed either normal chow or high fat diets supplemented with different zinc concentrations for either 4 or 6 weeks (FIG. 2A). The levels of zinc were analyzed after 4 weeks (FIGS. 2B and 2C) and after 6 weeks (FIGS. 2D and 2E).

For data set [5], the system named is human hepatoma HepG2 cells. The data set is described as follows: Zinc activation of LKB1/AMPK and AKT signaling in HepG2 cells. Type of data set: cell-based. The settings on record: acute, dose dependent.
For data set [6], the system named is serine/threonine phosphatase. The data set is described as follows: Ex vivo serine/threonine phosphatase activity in SLC39A5 loss-of-function mice, diet zinc supplementation. The following applies: high fat diets supplemented with different zinc concentrations, ex vivo assay.

As to `[Zn]` [zinc], the tyrosine phosphatase activity entry in the data set on tyrosine phosphatase [1] is recorded as “suppressed the activity”. The serine/threonine phosphatase activity result in data set [2] was “suppressed the activity”. Also, the “LKB1/AMPK and AKT signaling pathways” value in data set [3] is “acutely activates LKB1/AMPK and AKT signaling pathways in dose dependent manner”; in data set [5] it was “acutely activates LKB1/AMPK and AKT signaling pathways in dose dependent manner”. Besides, the “rescue of tyrosine phosphatase inhibition caused by loss of SLC39A5” value in the data set on tyrosine phosphatase [4] is “did not rescue the inhibition”. Also, in the data set with mice fed high fat diet (high fat diet supplemented with zinc), the “fat accumulation in liver (microscopic analysis)” value was “reverses fat accumulation in liver”. Besides, the “intravenous glucose tolerance test, blood glucose” value in the data set on mice fed high fat diet (high fat diet with increasing diet zinc concentration, 4 or 6 weeks) was “mitigated blood glucose increase mediated by high fat diet”. The “intravenous glucose tolerance test, area under the curve” value in the data set with mice fed high fat diet (high fat diet with increasing diet zinc concentration, effect not statistically significant) is listed as “reduced area under the curve”. Besides, in the data set with mice fed high fat diet (male mice, diets supplemented with different zinc concentrations, 4 and 6 weeks), the serum zinc levels result is “no significant change”. Also, the hepatic zinc levels entry with mice fed high fat diet (male mice, after 4 weeks) is on record as “no significant change”; with mice fed high fat diet (male mice, after 6 weeks, correlated with level of zinc in diet), “statistically significant increase”. In addition, the “rescue of serine/threonine phosphatase inhibition caused by loss of SLC39A5” value in data set [6] was “did not rescue the inhibition”.
